In patent US5952368A, “5-aroylpyrrol-2-ylmethylarene derivatives” (Syntex (U.S.A.) Inc., priority 1997, dated 1999):

Experiments:
[1] = molecular target: T1, COX II (Homo sapiens, UniProt P35354); assay: Inhibition of COX II in vitro (radiometric assay, 14C arachidonic acid, partially purified enzyme); assay type: biochemical; settings: partially purified COX II, 20 micromolar arachidonic acid, 10 min preincubation, room temperature; read-out: COX II IC50
T1 construct: made in house; baculovirus-infected insect cells by own knowledge of the cited Barnett et al. 1994
T1 sequence (P35354 18-604): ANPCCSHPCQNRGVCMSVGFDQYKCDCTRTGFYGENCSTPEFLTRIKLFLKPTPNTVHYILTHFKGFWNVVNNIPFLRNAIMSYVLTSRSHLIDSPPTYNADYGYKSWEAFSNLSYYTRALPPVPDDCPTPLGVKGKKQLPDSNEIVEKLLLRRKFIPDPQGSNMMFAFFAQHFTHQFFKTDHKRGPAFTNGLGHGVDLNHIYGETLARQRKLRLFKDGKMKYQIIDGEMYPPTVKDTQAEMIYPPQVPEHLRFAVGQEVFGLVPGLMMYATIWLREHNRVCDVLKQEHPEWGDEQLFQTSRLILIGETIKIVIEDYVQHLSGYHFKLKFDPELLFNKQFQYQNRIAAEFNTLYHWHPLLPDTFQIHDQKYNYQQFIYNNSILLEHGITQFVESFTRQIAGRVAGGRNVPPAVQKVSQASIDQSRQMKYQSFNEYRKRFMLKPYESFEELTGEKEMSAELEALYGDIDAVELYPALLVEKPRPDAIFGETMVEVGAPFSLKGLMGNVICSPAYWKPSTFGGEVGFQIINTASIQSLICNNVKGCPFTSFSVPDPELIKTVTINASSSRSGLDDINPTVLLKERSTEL
Method: (§1) The COX I and COX II inhibitory activity of compounds of this invention in vitro was determined using partially purified COX I and COX II enzymes, prepared as described in J. Barnett et al., Biochim. Biophys. Acta, 1209:130--139 (1994).
(§2) COX I and COX II samples were diluted with Tris-HCl buffer (50 mM Tris-HCl pH 7.9) containing 2 mM EDTA and 10% glycerol and reconstituted by incubating first with 2 mM phenol for 5 minutes and then with 1 micromolar hematin for an additional 5 minutes. 125 μl of the reconstituted COX I or COX II enzyme were preincubated for 10 minutes at room temperature in a shaking water bath with the compounds of the invention dissolved in 2-15 μl of DMSO or the carrier vehicles (control samples). The enzyme reaction was initiated by adding 25 μl of 1-[14C] arachidonic acid (80,000-100,000 cpm/tube; 20 micromolar final concentration) and the reaction was allowed to continue for an additional 45 seconds. The reaction was terminated by adding 100 μl of 2N HCl and 750 μl water. An aliquot (950 μl) of the reaction mixture was loaded onto a 1 ml C18 Sep-Pak column (J. T. Baker, Phillipsburg, N.J.) which had been previously washed with 2-3 ml methanol and equilibrated with 5-6 ml distilled water. Oxygenated products were quantitatively eluted with 3 ml of acetonitrile/water/acetic acid (50:50:0.1, v/v) and the radioactivity in the eluate determined in a scintillation counter.

[2] = molecular target: T2, COX I (Homo sapiens, UniProt P23219); assay: Inhibition of COX I in vitro (radiometric assay, 14C arachidonic acid, partially purified enzyme); assay type: biochemical; settings: partially purified COX I, 20 micromolar arachidonic acid, 10 min preincubation, room temperature; read-out: COX I IC50
T2 construct: made in house; baculovirus-infected insect cells by own knowledge of the cited Barnett et al. 1994
Method: as §1, §2

T2 sequence (P23219 24-599): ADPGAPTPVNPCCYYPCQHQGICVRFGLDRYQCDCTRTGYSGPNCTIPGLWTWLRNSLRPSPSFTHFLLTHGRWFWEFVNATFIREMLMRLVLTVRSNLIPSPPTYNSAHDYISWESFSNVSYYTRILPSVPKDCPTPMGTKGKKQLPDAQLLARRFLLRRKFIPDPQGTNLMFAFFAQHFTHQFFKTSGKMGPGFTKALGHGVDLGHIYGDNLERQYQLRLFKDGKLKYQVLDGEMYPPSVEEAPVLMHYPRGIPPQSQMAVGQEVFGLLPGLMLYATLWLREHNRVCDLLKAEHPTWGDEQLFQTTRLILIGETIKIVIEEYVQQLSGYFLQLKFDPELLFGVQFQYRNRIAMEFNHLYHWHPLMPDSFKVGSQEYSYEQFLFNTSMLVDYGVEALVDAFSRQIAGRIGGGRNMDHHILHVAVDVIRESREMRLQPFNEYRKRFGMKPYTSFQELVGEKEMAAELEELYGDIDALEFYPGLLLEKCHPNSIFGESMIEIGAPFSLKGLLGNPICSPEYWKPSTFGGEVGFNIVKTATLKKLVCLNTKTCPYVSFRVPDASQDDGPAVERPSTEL

**Q.** Cc1cc(Cc2ccc(NS(C)(=O)=O)cc2)n(C)c1C(=O)c1ccc(Cl)cc1 [compound 1, N-{4-[5-(4-Chlorobenzoyl)-1,4-dimethyl-1H-pyrrol-2-ylmethyl]phenyl}methane-sulfonamide] was tested. Which IC50 [1] did it give?
**A.** 150 nM

**Q.** What about the IC50 [2] of the same molecule?
**A.** 11000 nM

**Q.** For Cc1cc(C(C)c2ccc(NS(C)(=O)=O)cc2)n(C)c1C(=O)c1ccc(Cl)cc1 (stereo not drawn) [compound 11, N-{4-[5-(4-Chlorobenzoyl)-1,4-dimethyl-1H-pyrrol-2-ylethan-1-yl]phenyl}-methanesulfonamide], which IC50 [1] is on record?
**A.** 510 nM

**Q.** What about the IC50 [2] of the same molecule?
**A.** 7500 nM

**Q.** Cc1cc(Cc2c(F)cc(NS(C)(=O)=O)cc2F)n(C)c1C(=O)c1ccc(Cl)cc1 [compound 27, N-{3,5-Difluoro-4-[5-(4-chlorobenzoyl)-1,4-dimethyl-1H-pyrrol-2-ylmethyl]-phenyl}-methanesulfonamide] was tested. Which IC50 [1] did it give?
**A.** 63 nM

**Q.** What about the IC50 [2] of the same molecule?
**A.** 415000 nM

**Q.** With Cc1ccc(C(=O)c2ccc(Cc3ccc(NS(C)(=O)=O)cc3)n2C)cc1 [compound 28, N-{4-[5-(4-Methylbenzoyl)-1-methyl-1H-pyrrol-2-ylmethyl]phenyl}methanesulfonamide] as the molecule, how does the IC50 [1] read?
**A.** 190 nM

**Q.** What about the IC50 [2] of the same molecule?
**A.** 33000 nM

**Q.** What does the source list for Cc1ccc(C(=O)c2ccc(Cc3ccc(NS(C)(=O)=O)cc3Cl)n2C)cc1 [compound 31, N-{3-Chloro-4-[5-(4-methylbenzoyl)-1-methyl-1H-pyrrol-2-ylmethyl]phenyl}-methanesulfonamide]?
**A.** IC50 [1]: 45 nM; IC50 [2]: 3900 nM

**Q.** With Cc1ccc(C(=O)c2c(C)cc(Cc3ccc(NS(C)(=O)=O)cc3F)n2C)cc1 [compound 38, N-{3-Fluoro-4-[5-(4-methylbenzoyl)-1,4-dimethyl-1H-pyrrol-2-ylmethyl]phenyl}-methanesulfonamide] as the molecule, how does the IC50 [1] read?
**A.** 65 nM

**Q.** And the IC50 [2]?
**A.** 270 nM

**Q.** Which IC50 [1] does the source give for Cc1cc(Cc2ccc(NS(C)(=O)=O)cc2F)n(C)c1C(=O)c1ccccc1 [compound 60, N-{3-Fluoro-4-[5-benzoyl-1,4-dimethyl-1H-pyrrol-2-ylmethyl]phenyl}methanesulfonamide] here?
**A.** 28 nM

**Q.** What about the IC50 [2] of the same molecule?
**A.** 160 nM

**Q.** For Cc1cc(Cc2ccc(NS(=O)(=O)CCO)cc2F)n(C)c1C(=O)c1ccccc1 [compound 63, N-{3-Fluoro-4-[5-benzoyl-1,4-dimethyl-1H-pyrrol-2-ylmethyl]phenyl}-2-(hydroxy)-ethanesulfonamide], which IC50 [1] is on record?
**A.** 330 nM

**Q.** And the IC50 [2]?
**A.** 35 nM

**Q.** How did the IC50 [1] turn out when Cn1c(Cc2ccc(NS(=O)(=O)CCO)cc2F)ccc1C(=O)c1ccccc1 [compound 66, N-{3-Fluoro-4-[5-benzoyl-1-methyl-1H-pyrrol-2-ylmethyl]phenyl}-2-(hydroxy)-ethanesulfonamide] was run?
**A.** 120 nM

**Q.** What about the IC50 [2] of the same molecule?
**A.** 6900 nM

**Q.** How did the IC50 [1] turn out when CCS(=O)(=O)Nc1ccc(Cc2cc(C)c(C(=O)c3ccccc3)n2C)c(F)c1 [compound 68, N-{3-Fluoro-4-[5-benzoyl-1,4-dimethyl-1H-pyrrol-2-ylmethyl]phenyl}ethanesulfonamide] was run?
**A.** 73 nM

**Q.** What about the IC50 [2] of the same molecule?
**A.** 860 nM

**Q.** Cc1ccccc1C(=O)c1ccc(Cc2ccc(NS(C)(=O)=O)cc2F)n1C [compound 71, N-{3-Fluoro-4-[5-(2-methylbenzoyl)-1-methyl-1H-pyrrol-2-ylmethyl]phenyl}-methanesulfonamide] was tested. Which IC50 [1] did it give?
**A.** 160 nM

**Q.** And the IC50 [2]?
**A.** 38000 nM

**Q.** How did the IC50 [1] turn out when COc1ccccc1C(=O)c1ccc(Cc2ccc(NS(C)(=O)=O)cc2F)n1C [compound 72, N-{3-Fluoro-4-[5-(2-methoxybenzoyl)-1-methyl-1H-pyrrol-2-ylmethyl]phenyl}-methanesulfonamide] was run?
**A.** 700 nM

**Q.** And the IC50 [2]?
**A.** 265000 nM

**Q.** With CN(C)c1ccc(C(=O)c2ccc(Cc3ccc(NS(C)(=O)=O)cc3F)n2C)cc1 [compound 88, N-{3-Fluoro-4-[5-(4-dimethylaminobenzoyl)-1-methyl-1H-pyrrol-2-ylmethyl]phenyl}-methanesulfonamide] as the molecule, how does the IC50 [1] read?
**A.** 60 nM

**Q.** And the IC50 [2]?
**A.** < 100 nM

**Q.** COc1ccc(C(=O)c2c(C)cc(Cc3ccc(NS(C)(=O)=O)cc3F)n2C)cc1 [compound 95, N-{3-Fluoro-4-[5-(4-methoxybenzoyl)-1,4-dimethyl-1H-pyrrol-2-ylmethyl]phenyl}-methanesulfonamide] was tested. Which IC50 [1] did it give?
**A.** 60 nM

**Q.** What about the IC50 [2] of the same molecule?
**A.** 90 nM

**Q.** For CCS(=O)(=O)Nc1ccc(Cc2cc(C)c(C(=O)c3ccc(OC)cc3)n2C)c(F)c1 [compound 97, N-{3-Fluoro-4-[5-(4-methoxybenzoyl)-1,4-dimethyl-1H-pyrrol-2-ylmethyl]phenyl}-ethanesulfonamide], which IC50 [1] is on record?
**A.** 38 nM

**Q.** What about the IC50 [2] of the same molecule?
**A.** < 100 nM

**Q.** Which results are given for Cc1cc(Cc2ccc(NS(=O)(=O)CCO)cc2F)n(C)c1C(=O)c1ccc(F)cc1 [compound 104, N-{3-Fluoro-4-[5-(4-fluorobenzoyl)-1,4-dimethyl-1H-pyrrol-2-ylmethyl]phenyl}-2-(hydroxy)ethanesulfonamide]?
**A.** IC50 [1]: 240 nM; IC50 [2]: 750 nM

**Q.** Which results are given for COc1ccc(C(=O)c2ccc(Cc3ccc(NS(=O)(=O)CCO)cc3F)n2C)cc1 [compound 106, N-{3-Fluoro-4-[5-(4-methoxybenzoyl)-1-methyl-1H-pyrrol-2-ylmethyl]phenyl}-2-(hydroxy)ethanesulfonamide]?
**A.** IC50 [1]: 70 nM; IC50 [2]: 950 nM

**Q.** CS(=O)(=O)Nc1ccc(C2CCn3c(C(=O)c4ccccc4)ccc32)c(Cl)c1 (stereo not drawn) [compound 131, N-{3-Chloro-4-[5-Benzoyl-1,2-dihydro-3H-pyrrolizin-1-yl]phenyl}methanesulfonamide] was tested. Which IC50 [1] did it give?
**A.** 77 nM

**Q.** And the IC50 [2]?
**A.** 200 nM

**Q.** Which IC50 [1] does the source give for COc1ccc(C(=O)c2ccc3n2CCC3c2ccc(NS(=O)(=O)CCO)cc2Cl)cc1 (stereo not drawn) [compound 133, N-{3-Chloro-4-[5-(4-methoxybenzoyl)-1,2-dihydro-3H-pyrrolizin-1-yl]phenyl}-2(hydroxy)ethanesulfonamide] here?
**A.** 58 nM

**Q.** What about the IC50 [2] of the same molecule?
**A.** 45 nM

**Q.** For Cc1cc(Cc2ccc(NS(N)(=O)=O)cc2)n(C)c1C(=O)c1ccc(Cl)cc1 [compound 141, 1-{4-[5-(4-Chlorobenzoyl)-1,4-dimethyl-1H-pyrrol-2-ylmethyl]phenyl}sulfamide], which IC50 [1] is on record?
**A.** 30 nM

**Q.** And the IC50 [2]?
**A.** 3900 nM

**Q.** What does the source list for Cc1cc(Cc2ccc(NS(N)(=O)=O)cc2C#N)n(C)c1C(=O)c1ccc(Cl)cc1 [compound 147, 1-{3-Cyano-4-[5-(4-chlorobenzoyl)-1,4-dimethyl-1H-pyrrol-2-ylmethyl]phenyl}sulfamide]?
**A.** IC50 [1]: 100 nM; IC50 [2]: 600 nM

**Q.** Which results are given for Cc1ccc(C(=O)c2ccc(Cc3ccc(NS(N)(=O)=O)cc3F)n2C)cc1 [compound 154, 1-{3-Fluoro-4-[5-(4-methylbenzoyl)-1-methyl-1H-pyrrol-2-ylmethyl]phenyl}sulfamide]?
**A.** IC50 [1]: 54 nM; IC50 [2]: 34000 nM

**Q.** Which results are given for CNS(=O)(=O)Nc1ccc(Cc2ccc(C(=O)c3ccc(C)cc3C)n2C)c(F)c1 [compound 172, 1-{3-Fluoro-4-[5-(2,4-dimethylbenzoyl)-1-methyl-1H-pyrrol-2-ylmethyl]phenyl}-3-methylsulfamide]?
**A.** IC50 [1]: 90 nM; IC50 [2]: 43000 nM

**Q.** What does the source list for Cc1cc(Cc2ccc(NS(N)(=O)=O)cc2)n(C)c1C(=O)c1ccccc1 [compound 177, 1-{4-[5-benzoyl-1,4-dimethyl-1H-pyrrol-2-ylmethyl]phenyl}sulfamide]?
**A.** IC50 [1]: 300 nM; IC50 [2]: 790 nM

**Q.** With COc1ccc(C(=O)c2ccc(Cc3ccc(NS(N)(=O)=O)cc3F)n2C)cc1 [compound 196, 1-{3-Fluoro-4-[5-(4-Methoxybenzoyl)-1-methyl-1H-pyrrol-2-ylmethyl]phenyl}sulfamide] as the molecule, how does the IC50 [1] read?
**A.** 40 nM

**Q.** What about the IC50 [2] of the same molecule?
**A.** 5000 nM

**Q.** For Cc1cc(Cc2ccc(N)cn2)n(C)c1C(=O)c1ccc(Cl)cc1 [compound 333, {2-[5-(4-Chlorobenzoyl)-1,4-dimethyl-1H-pyrrol-2-ylmethyl]pyridin-5-yl}amine], which IC50 [1] is on record?
**A.** 78400 nM
